Measured values as given in ChEMBL document CHEMBL5316313, “Discovery of Novel 3-Phenylpiperidine Derivatives Targeting the β-Catenin/B-Cell Lymphoma 9 Interaction as a Single Agent and in Combination with the Anti-PD-1 Antibody for the Treatment of Colorectal Cancer” (J Med Chem, 2023).
Active and inactive are the calls of the source. No cut-off for these calls is given here.

Tests used:
[1] = Toxicity in BALB/c mouse xenografted with mouse CT26 cells assessed as body weight loss at 30 mg/kg, ip QD and measured upto 9 days in presence of anti-PD-1 antibody cotreatment at 10 mg/kg,ip BIW; assay type: organism-based; conditions: in vivo, 216 h, time < 9 day
[2] = test system: HEK293; experiment: Induction of apoptosis in Wnt-independent human HEK293 cells assessed as late apoptotic cells at 10 uM incubated for 24 hrs by Annexin V-Alexa Fluor 647/PI staining based flow cytomtery (Rvb=10.5%); assay type: functional
[3] = test system: CT26; experiment: Synergistic antitumor activity in mouse CT26 cells xenografted in BALB/c mouse assessed as decrease in Foxp3 expression in Treg tumor cells at 30 mg/kg, ip QD in presence of anti-PD-1 antibody cotreatment at 10 mg/kg,ip BIW by qRT-PCR analysis; assay type: functional, organism-based
[4] = test system: CT26; experiment: Induction of apoptosis in Wnt-dependent mouse CT26 cells assessed as necrotic cells at 20 uM incubated for 24 hrs by Annexin V-Alexa Fluor 647/PI staining based flow cytomtery (Rvb=1.04%); assay type: functional
[5] = Toxicity in BALB/c mouse xenografted with mouse CT26 cells assessed as pathological changes in kidney at 30 mg/kg, ip QD by hematoxylin and eosin staining based microscopic analysis; assay type: organism-based; conditions: in vivo
[6] = test system: HCT-116; experiment: Induction of apoptosis in Wnt-dependent human HCT-116 cells assessed as early apoptotic cells at 10 uM incubated for 24 hrs by Annexin V-Alexa Fluor 647/PI staining based flow cytomtery (Rvb=14.3%); assay type: functional
[7] = Cmax in Sprague-Dawley rat at 21 mg/kg, ip and measured upto 24 hrs by LC-MS analysis; assay type: ADME, organism-based; parameters: dose 21 mg/kg, time < 24 hrs, route ip; conditions: in vivo
[8] = test system: CT26; conditions: Mus musculus, BALB/c, dose 30.0 mg/kg, route ip
Description: In vivo inhibition of Wnt signaling pathway in mouse CT26 cells implanted in BALB/c mouse assessed as reduction in Axin2 mRNA expression level in tumor at 30 mg/kg, ip QD by qRT-PCR analysis

[9] = target: T1, beta-catenin-B-cell lymphoma 9 protein complex (Homo sapiens, UniProt P35222); experiment: Inhibition of beta-catenin/BCL9 protein-protein interaction in Wnt-independent human RKO cells assessed as reduction in Axin2 expression level by qRT-PCR assay; assay type: cell-based
T1 sequence (P35222 whole entry): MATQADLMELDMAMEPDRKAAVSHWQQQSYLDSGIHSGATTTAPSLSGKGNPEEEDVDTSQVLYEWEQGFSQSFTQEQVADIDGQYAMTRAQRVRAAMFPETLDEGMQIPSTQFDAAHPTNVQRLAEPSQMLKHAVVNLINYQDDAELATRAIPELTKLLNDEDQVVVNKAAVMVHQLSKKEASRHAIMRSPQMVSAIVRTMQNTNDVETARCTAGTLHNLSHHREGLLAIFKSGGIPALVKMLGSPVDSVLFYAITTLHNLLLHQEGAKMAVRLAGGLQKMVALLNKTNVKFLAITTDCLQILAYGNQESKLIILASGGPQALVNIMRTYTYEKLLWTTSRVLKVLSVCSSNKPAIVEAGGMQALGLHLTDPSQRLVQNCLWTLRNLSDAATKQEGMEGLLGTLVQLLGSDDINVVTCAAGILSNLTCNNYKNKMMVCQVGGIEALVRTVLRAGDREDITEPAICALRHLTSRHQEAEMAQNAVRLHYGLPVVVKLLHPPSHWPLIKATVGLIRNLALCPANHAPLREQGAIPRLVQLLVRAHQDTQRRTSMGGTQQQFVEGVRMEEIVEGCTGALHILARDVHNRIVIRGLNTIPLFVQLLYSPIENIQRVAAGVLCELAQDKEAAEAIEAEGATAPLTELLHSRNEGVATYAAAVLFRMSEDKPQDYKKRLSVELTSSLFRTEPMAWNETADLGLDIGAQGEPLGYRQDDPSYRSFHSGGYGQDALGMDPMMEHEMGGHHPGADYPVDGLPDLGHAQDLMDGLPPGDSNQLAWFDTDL
T1 sequence (O00512 whole entry): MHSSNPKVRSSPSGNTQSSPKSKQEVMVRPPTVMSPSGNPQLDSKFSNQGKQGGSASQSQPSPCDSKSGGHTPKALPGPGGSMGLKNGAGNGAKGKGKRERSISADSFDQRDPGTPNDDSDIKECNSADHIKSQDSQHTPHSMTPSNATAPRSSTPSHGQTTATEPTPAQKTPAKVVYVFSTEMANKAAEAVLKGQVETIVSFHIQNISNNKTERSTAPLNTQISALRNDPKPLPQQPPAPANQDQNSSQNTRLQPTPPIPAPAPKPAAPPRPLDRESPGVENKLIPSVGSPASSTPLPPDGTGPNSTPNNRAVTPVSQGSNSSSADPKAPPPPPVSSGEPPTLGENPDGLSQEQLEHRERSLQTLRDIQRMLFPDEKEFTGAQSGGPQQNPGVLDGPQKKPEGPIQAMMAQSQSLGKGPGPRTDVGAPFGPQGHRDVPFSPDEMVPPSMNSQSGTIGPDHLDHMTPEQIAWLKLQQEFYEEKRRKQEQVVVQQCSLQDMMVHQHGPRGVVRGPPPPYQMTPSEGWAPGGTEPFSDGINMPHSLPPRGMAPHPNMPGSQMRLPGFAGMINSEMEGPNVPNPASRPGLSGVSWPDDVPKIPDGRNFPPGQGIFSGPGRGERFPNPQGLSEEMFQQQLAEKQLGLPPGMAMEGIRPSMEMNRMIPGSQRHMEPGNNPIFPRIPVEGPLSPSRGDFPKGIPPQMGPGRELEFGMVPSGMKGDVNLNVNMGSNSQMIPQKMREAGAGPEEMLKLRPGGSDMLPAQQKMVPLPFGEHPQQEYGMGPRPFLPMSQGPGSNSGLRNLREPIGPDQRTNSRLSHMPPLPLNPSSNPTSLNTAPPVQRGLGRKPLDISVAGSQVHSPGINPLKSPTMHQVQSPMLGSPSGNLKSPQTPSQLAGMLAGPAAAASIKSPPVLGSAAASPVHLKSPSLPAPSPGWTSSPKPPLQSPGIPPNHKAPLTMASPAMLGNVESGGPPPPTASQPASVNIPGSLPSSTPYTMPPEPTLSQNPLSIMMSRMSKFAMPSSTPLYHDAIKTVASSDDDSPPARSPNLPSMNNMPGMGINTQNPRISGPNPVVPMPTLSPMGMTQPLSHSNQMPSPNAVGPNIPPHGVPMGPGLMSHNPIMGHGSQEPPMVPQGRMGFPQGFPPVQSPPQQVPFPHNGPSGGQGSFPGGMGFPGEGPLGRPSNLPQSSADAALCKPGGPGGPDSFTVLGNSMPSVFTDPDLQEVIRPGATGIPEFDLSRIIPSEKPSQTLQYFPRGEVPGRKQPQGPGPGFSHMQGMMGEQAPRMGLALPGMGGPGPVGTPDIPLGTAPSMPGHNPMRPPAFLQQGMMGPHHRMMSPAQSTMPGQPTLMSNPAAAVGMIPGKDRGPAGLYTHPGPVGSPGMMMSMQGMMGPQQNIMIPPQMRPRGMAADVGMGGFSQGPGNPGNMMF

[10] = target: T1, beta-catenin-B-cell lymphoma 9 protein complex; experiment: Inhibition of beta-catenin/BCL9 protein-protein interaction in Wnt-independent human A549 cells assessed as reduction in Axin2 expression level by qRT-PCR assay; assay type: cell-based

| Compound | Activity [1] | Activity [2] [%] | Activity [3] | Activity [4] [%] | Activity [5] | Activity [6] [%] | Cmax [7] [ng/mL] | inhibition [8] | IC50 [9] [µM] | IC50 [10] [µM] |
| --- | --- | --- | --- | --- | --- | --- | --- | --- | --- | --- |
| CC(C)c1ccc(-c2cccc(S(=O)(=O)N3CCCC(c4cccc(OC(C)(C)C(=O)NS(=O)(=O)c5ccc(C(F)(F)F)cc5)c4)C3)c2)cc1 (stereo not given) | Non-Toxic | 14.9 | Active | 1.42 | Non-Toxic | 16.7 | 6960 | Active |  |  |
| O=C1[C@H](Cc2ccc(O)cc2)N2C(=O)CCN(C(=O)NCc3ccccc3)[C@H]2CN1Cc1cccc2ccccc12 |  |  |  |  |  |  |  |  | 26.3 | 24.7 |
